According to patent publication US20260265259A1, “SUBSTITUTED 6-IMIDAZOPYRIDAZINE IL-17A MODULATORS AND USES THEREOF” (DICE ALPHA, INC., priority 2023, published 2026):
Read-outs that look alike come from different tables or passages of the source.

Test system: IL-17A/A
Test: IL-17A/A HEK-Blue cell assay
Format: cell-based
Details: IL-17A/A inhibition, HEK-Blue IL-17A reporter cell line, IL17A/A 5 ng/mL
Protocol: The HEK-Blue IL-17A reporter cell line (Fisher #NC1408637) was used for cell-based IL-17A/A inhibition assays. Cells were grown and prepared for assays according to the manufacturer's instructions. This cell line consists of HEK 293 cells that were designed to expressed IL-17RA, IL-17RC, and the Act1 adapter molecule, the combination of which, when stimulated by IL-17A/A or IL17A/F activates a NFκB promoter and drives expression of the recombinant Secreted Alkaline Phosphatase (SEAP) gene. Media from the cells is then added to a development reagent (Quanti-Blue Substrate, Fisher #NC9711613), and read at A630.
Compounds were dispensed in DMSO to an empty clear 384-well tissue culture plate in a titration ranging from 10 μM to 27 pM, with DMSO added to every well to a final concentration of 0.1%. Cells were then added to the plate (45 μL/well at a concentration of 280,000 cells/mL). IL17A/A (Genscript #Z03228) or IL17A/F (R&D Systems) was added to the plate to a final concentration of 5 ng/mL and a final well volume of 50 μL. The cells, compound, and IL-17A/A or IL17A/F were then incubated for 20 hours before media was removed for SEAP analysis. The resulting inhibition curve was then analyzed using Dotmatics' integrated 4-parameter fit screening protocol to generate IC50 values.

[1] = HEK-Blue, 20 h, SEAP read at A630, read-out: AA IC50
[2] = 20 hours, SEAP read at A630, read-out: AA IC50

Row | Structure (SMILES) | IC50 [1] | IC50 [2]
1 | CCn1nccc1C(=O)N[C@H](c1cn2nc(C[C@H]3C[C@@H](C(F)(F)F)CNC3=O)c(C3CCCOC3)cc2n1)C1CCC(F)(F)CC1 (some centres unmarked) [Compound 2] |  | 100 to 1000 nM
2 | CCn1nccc1C(=O)N[C@H](c1cn2nc(C[C@H]3C[C@@H](C(F)(F)F)CNC3=O)c(-c3cncnc3)cc2n1)C1CCC(F)(F)CC1 [Compound 4] | 100 to 1000 nM | 
3 | CCn1nccc1C(=O)N[C@H](c1cn2nc(C[C@H]3C[C@@H](C(F)(F)F)CNC3=O)c(C3CCCOC3)cc2n1)C1CCC(F)(F)CC1 (some centres unmarked) [Compound 7] | 100 to 1000 nM | 
4 | CCn1nccc1C(=O)N[C@H](c1cn2nc(C[C@@H]3C[C@@H](C(F)(F)F)CNC3=O)c(-c3cccnc3)cc2n1)C1CCC(F)(F)CC1 [Compound 8] | 100 to 1000 nM | 
5 | CCn1nccc1C(=O)N[C@H](c1cn2nc(C[C@@H]3C[C@@H](C(F)(F)F)CNC3=O)c(-c3cncnc3)cc2n1)C1CCC(F)(F)CC1 [Compound 9] | > 1000 nM | 
6 | CCn1nccc1C(=O)N[C@H](c1cn2nc(C[C@@H]3C[C@@H](C(F)(F)F)CNC3=O)c(C3CCOC3)cc2n1)C1CCC(F)(F)CC1 (some centres unmarked) [Compound 10] | 100 to 1000 nM | 
7 | CCn1nccc1C(=O)N[C@H](c1cn2nc(C[C@@H]3C[C@@H](C(F)(F)F)CNC3=O)c(C3CCOC3)cc2n1)C1CCC(F)(F)CC1 (some centres unmarked) [Compound 11] |  | 100 to 1000 nM
8 | CCn1nccc1C(=O)N[C@H](c1cn2nc(C[C@H]3C[C@@H](C(F)(F)F)CNC3=O)c(C3CCCOC3)cc2n1)C1CCC(F)(F)CC1 (some centres unmarked) [Compound 12] |  | < 100 nM
9 | CCn1nccc1C(=O)N[C@H](c1cn2nc(C[C@H]3C[C@@H](C(F)(F)F)CNC3=O)c(C3CCCOC3)cc2n1)C1CCC(F)(F)CC1 (some centres unmarked) [Compound 13] |  | < 100 nM
10 | O=C(N[C@H](c1cn2nc(C[C@@H]3C[C@@H](C(F)(F)F)CNC3=O)c(N3CCOCC3)cc2n1)C1CCC(F)(F)CC1)c1nonc1C1CC1 [Compound 17] | 100 to 1000 nM | 

Now from value to compound:

Row | IC50 [1] | IC50 [2] | Structure (SMILES)
11 | < 100 nM |  | O=C(N[C@H](c1cn2nc(C[C@H]3C[C@@H](C(F)(F)F)CNC3=O)c(C3CCOC3)cc2n1)C1CCC(F)(F)CC1)c1nonc1C1CC1 (single isomer, unassigned) [Compound 45]
12 | 100 to 1000 nM |  | CCn1nccc1C(=O)N[C@H](c1cn2nc(C[C@H]3C[C@@H](C(F)(F)F)CNC3=O)c(-c3cccnc3)cc2n1)C1CCC(F)(F)CC1 [Compound 3]
13 | < 100 nM |  | CCn1nccc1C(=O)N[C@H](c1cn2nc(C[C@H]3C[C@@H](C(F)(F)F)CNC3=O)c(C3COC3)cc2n1)C1CCC(F)(F)CC1 [Compound 5]
14 | < 100 nM |  | CCn1nccc1C(=O)N[C@H](c1cn2nc(C[C@H]3C[C@@H](C(F)(F)F)CNC3=O)c(C3CCOC3)cc2n1)C1CCC(F)(F)CC1 (some centres unmarked) [Compound 6]
15 | < 100 nM |  | CCn1nccc1C(=O)N[C@H](c1cn2nc(CC3C[C@@H](C(F)(F)F)CNC3=O)c(N3CCOCC3)cc2n1)C1CCC(F)(F)CC1 (some centres unmarked) [Compound 14]
16 | < 100 nM |  | O=C(N[C@H](c1cn2nc(CC3C[C@@H](C(F)(F)F)CNC3=O)c(N3CCOCC3)cc2n1)C1CCC(F)(F)CC1)c1nonc1C1CC1 (some centres unmarked) [Compound 15]
17 | < 100 nM |  | O=C(N[C@H](c1cn2nc(C[C@H]3C[C@@H](C(F)(F)F)CNC3=O)c(N3CCOCC3)cc2n1)C1CCC(F)(F)CC1)c1nonc1C1CC1 [Compound 16]
18 | < 100 nM |  | CCn1nccc1C(=O)N[C@H](c1cn2nc(C[C@H]3C[C@@H](C(F)(F)F)CNC3=O)c(N3CCCCC3)cc2n1)C1CCC(F)(F)CC1 [Compound 18]
19 | < 100 nM |  | CCn1nccc1C(=O)N[C@H](c1cn2nc(C[C@H]3C[C@@H](C(F)(F)F)CNC3=O)c(N3CCC(F)(F)CC3)cc2n1)C1CCC(F)(F)CC1 [Compound 19]
20 | < 100 nM |  | CCn1nccc1C(=O)N[C@H](c1cn2nc(C[C@H]3C[C@@H](C(F)(F)F)CNC3=O)c(N3CCN(C)CC3)cc2n1)C1CCC(F)(F)CC1 [Compound 20]
